Counter-ions that a name gives are not always drawn.
Experiments:
[1] = biological target: T1, D4.2 Dopamine Receptors (Human Recombinant) (Homo sapiens, UniProt P21917, DEL265-296); experiment: In vitro inhibition of 3H-spiperone binding to D4.2 dopamine receptors (human recombinant); settings: for IC50: IC50 for inhibition of specific 3H-spiperone (0.5 nM) binding, membranes of CHO cells transfected with human recombinant D4.2 receptor
T1 construct: purchased RBI D-195; host or cells: Chinese Hamster Ovary (CHO) cells, transfected; supplied as frozen membranes
T1 sequence (P21917 with tags, fused parts or gaps DEL265-296): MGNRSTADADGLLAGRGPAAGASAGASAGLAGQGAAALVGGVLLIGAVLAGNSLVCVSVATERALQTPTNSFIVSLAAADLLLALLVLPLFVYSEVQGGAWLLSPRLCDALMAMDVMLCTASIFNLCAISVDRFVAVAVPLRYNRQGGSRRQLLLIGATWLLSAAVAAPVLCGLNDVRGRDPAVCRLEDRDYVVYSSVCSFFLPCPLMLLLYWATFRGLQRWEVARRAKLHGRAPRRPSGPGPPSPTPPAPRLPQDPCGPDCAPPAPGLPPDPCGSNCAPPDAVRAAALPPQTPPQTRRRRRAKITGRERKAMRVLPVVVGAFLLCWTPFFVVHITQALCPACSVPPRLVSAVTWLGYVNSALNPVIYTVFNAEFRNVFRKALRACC
Description: II) In Vitro Inhibition of ^3H-spiperone Binding to D4.2 Dopamine Receptors (Human Recombinant)
Membranes are suspended in 10 mM Tris-HCl (pH 7.2) containing 2 mM EDTA, and stored tightly sealed at −80° C.
Asssay: The membranes are thawed and diluted in incubation buffer (50 mM Tns-HCl, pH 7.4, containing 120 mM NaCl, 5 mM KCl, 5 mM MgCl2 and 1 mM EDTA) —0.25 ml of membranes to 4.75 ml of incubation buffer. Aliquots of 100 μl of diluted membranes are added to 100 μl of test solution and 50 μl of ^3H-spiperone (0.5nM, final concentration). Finally, 750 μl incubation buffer is added and the assay mixture is incubated for 60 min at 25° C. Non-specific binding is determined using haloperidol (1 μM, final concentration). After incubation the assay is terminated by rapid filtration over GF/C glass fibre filters (presoaked in 0.1% PEI for at least 20 min), then washed twice with 5 ml ice cold 50 mM Tris-HCl in 0.9% NaCl at pH 7.4. The amount of radioactivity on the filters is determined by conventional liquid scintillation counting. Specific binding is total binding minus non-specific binding.

[2] = biological target: T2, D2 dopamine Receptors (Rattus norvegicus, UniProt P61169); experiment: In vitro inhibition of 3H-spiperone binding to D2 dopamine receptors; settings: for IC50: IC50 for inhibition of specific 3H-spiperone (0.2 nM) binding, corpus striatum of male Wistar rats
T2 construct: Corpus Striatum from male Wistar rats (150-200 g) is homogenized; from tissue; host or cells: rat corpus striatum
Description: I) In vitro Inhibition of ^3H-spiperone Binding to D2 dopamine Receptors
Tissue preparation: Preparations are performed at 0-4° C. unless otherwise indicated. Corpus Striatum from male Wistar rats (150-200 g) is homogenized for 5-10 sec in 10 ml KH2PO4 (50 mM, pH 7.4) using an Ultra-Turrax homogenizer. The suspension is centrifuged at 27,000×g for 15 min. The supematant is discarded and the pellet is resuspended in 50 mM KH2PO4, pH 7.4 (2000 ml per g of original tissue) and used for binding assays.
Assay: Aliquots of 0.5 ml tissue are added to 25 μl of test solution and 25 μl of ^3H-spiperone (0.2 nM, final concentration), mixed and incubated for 20 min at 37° C. Non-specific binding is determined using butadamol (1 μM, final concentration). After incubation the samples are placed on ice for 10 min. The assay is terminated by addition of 5 ml of ice-cold buffer and poured directly onto Whatman GF/C glass fibre filters (presoaked in 0.1% PEI for at least 20 min) under suction and immediately washed with 5 ml ice-cold buffer. The amount of radioactivity on the filters is determined by conventional liquid scintillation counting. Specific binding is total binding minus non-specific binding.

T2 sequence (P61169 whole entry): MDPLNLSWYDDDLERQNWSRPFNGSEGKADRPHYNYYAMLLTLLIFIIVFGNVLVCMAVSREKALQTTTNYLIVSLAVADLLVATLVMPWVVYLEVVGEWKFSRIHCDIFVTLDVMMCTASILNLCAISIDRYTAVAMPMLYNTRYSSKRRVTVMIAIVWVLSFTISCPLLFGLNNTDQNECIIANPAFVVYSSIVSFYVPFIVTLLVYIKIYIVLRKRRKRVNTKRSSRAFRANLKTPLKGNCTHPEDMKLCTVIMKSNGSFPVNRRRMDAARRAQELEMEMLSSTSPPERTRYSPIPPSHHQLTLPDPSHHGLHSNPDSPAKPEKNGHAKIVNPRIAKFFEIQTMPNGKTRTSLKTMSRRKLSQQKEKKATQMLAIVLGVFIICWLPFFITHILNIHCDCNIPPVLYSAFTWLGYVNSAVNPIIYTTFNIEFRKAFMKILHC

| Structure (SMILES) | IC50 [1] | IC50 [2] | affinity for dopamine D4 receptors (in words) ([1]; qualitative statement) | affinity for dopamine D2 receptors (in words) ([2]; qualitative statement) | melting point |
| --- | --- | --- | --- | --- | --- |
| COc1cc(Cl)ccc1OCC1CN(Cc2ccc(Cl)cc2)CCCO1 (racemic) [(±)-2-[(4-chloro-2-methoxyphenoxy)methyl]-4-(4-chlorobenzyl)perhydro oxazepine oxalic acid salt] | 2.5 nM | > 10000 nM |  |  |  |
| CCOc1ccccc1OCC1CNCCO1 (stereo not shown) [Viloxazine, 2-[(2-ethoxy-phenoxy)methyl]morpholine, reference compound] |  |  | no or only low affinity | no or only low affinity |  |
| COc1cc(Cl)ccc1OCC1CN(Cc2ccc(Cl)cc2)CCO1 (racemic) [(±)-4-(4-Chlorobenzyl)-2-[(4-chloro-2-methoxyphenoxy)methyl]morpholine oxalic acid salt] | 4 nM | > 10000 nM |  |  |  |
| COc1ccc(N)cc1OCC1CN(Cc2ccc(Cl)cc2)CCO1.O=C(O)C(=O)O (racemic) |  |  |  |  | 80 to 110 °C |

Source: patent US6479491B1, “Disubstituted morpholine, oxazepine or thiazepine derivatives, their preparation and their use as dopamine d4 receptor antagonists” (Neurosearch A/S, priority 1996, dated 2002)
